# Test: xn = mol fraction of the nth substance listed
# Conditions: 298 K, 101 kPa
smiles,measurement,setting,value
O + CC[NH3+].O=[N+]([O-])[O-],viscosity,x1 = 1,0.89 mPa·s
CCCC[NH3+].O=[N+]([O-])[O-] + O,viscosity,x2 = 0.112,69.8 mPa·s
same,viscosity,x2 = 0.2,49.5 mPa·s
same,viscosity,x2 = 0.397,23.17 mPa·s
same,viscosity,x2 = 0.494,15.53 mPa·s
same,viscosity,x2 = 0.596,10.22 mPa·s
same,viscosity,x2 = 0.698,6.54 mPa·s
same,viscosity,x2 = 0.95,1.53 mPa·s
CC[NH3+].O=[N+]([O-])[O-] + O,viscosity,x2 = 0,37.5 mPa·s
same,viscosity,x2 = 0.1,27.33 mPa·s
same,viscosity,x2 = 0.198,19.84 mPa·s
same,viscosity,x2 = 0.294,14.51 mPa·s
same,viscosity,x2 = 0.394,10.37 mPa·s
same,viscosity,x2 = 0.5,7.16 mPa·s
same,viscosity,x2 = 0.6,4.98 mPa·s
same,viscosity,x2 = 0.799,2.27 mPa·s
same,viscosity,x2 = 0.9,1.47 mPa·s

# From a compilation of properties of binary mixtures (doi:10.1016/j.molliq.2021.115610)
